The subject of data set [1] is ETP12 and ALL8 patient-derived xenografts. Description: Survival (Kaplan-Meier) and leukemia growth delay in ETP12 and ALL8 xenograft recipients. Type of data set: in vivo, human. As to the method: Patient-derived xenograft models were established as previously described[97],[98]. All experiments were pre-approved by the Human Research Ethics Committee of the University of New South Wales (UNSW), the UNSW Animal Care and Ethics Committee, the Alfred Health Human Ethics Committee and the AMREP Animal Ethics Committee. For transplantation assays, 10^6 splenocytes harvested from successfully engrafted primary human ETP-ALL or T-ALL xenografts were injected into nonobese diabetic/severe combined immunodeficient (NOD.Cg-Prkdc^scid, also termed NOD/SCID) or NOD/SCID/Il2rg^tm1wjl/SzJ (NSG) mice[99]. Moreover, 1.5 × 10^6 cells splenocytes harvested from successfully engrafted patient-derived AML xenografts were injected into nonobese diabetic/severe immunodeficient (NOD.Cg-Rag1^tm1MomIl2rg^tm1wjl/SzJ, also termed NRG) mice expressing human IL-3, human GM-CSF and human SCF from the SGM3 triple transgene (NRGS)[100]. Engraftment into recipients was monitored by FACS analysis of peripheral blood as previously described. […] Both males and females were used. […] Kaplan–Meier survival and statistical analyses were performed using GraphPad Prism. 6.0 software (GraphPad Software, Inc.). […]
(blue circles) and ALL8 (red open circles) 24 hours after the last dose of drugs was administered.
therapy. Median is indicated (bar) with Mean ± SEM indicated for ETP12 and ALL8, 2-way ANOVA
period of administration is indicated in light grey.

The test system of data set [2] is Lmo2^Tg primary leukemias (T-ALL 249, T-ALL 273, T-ALL 582). Description: In vivo efficacy in recipients of Lmo2^Tg primary T-ALL: leukemic DN3a cells, spleen weight, %Cd45.2+ in blood. More on the design: species or system mouse. The note with it: for Absolute numbers CD45.2+ DN3a cells: 24 h after last administration. The method, then: These compounds were diluted in 50% v/v DMSO/20 mM Tris-HCl pH 7.4 immediately prior to use.
Flow cytometry analyses were performed as previously described[10],[86] on single-cell suspensions stained using BD Pharmingen antibodies (BD Australia, North Ryde NSW, Australia) against mouse CD4 (RM4-5), CD8 (53-6.7), CD25 (PC61.5), CD44 (IM7), CD45.1 (A20), CD45.2 (104), Thy1.2 (53-2.1; #561616), TCRβ (H57-597), CD117 (ACK45), CD135 (A2F10.1), CD150 (TC15-12F12.2; #562373), B220 (RA3-6B2; #563708), CD3 (145-2C11; #563004), CD19 (ID3; #557655), Gr-1 (RB6-8C5; #563299 and #565033), CD11b (M1/70; #563015 and #560455), Ter119 (Ter119; #565523 and #557909), Sca-1 (D7; #558160) and an eBioscience antibody (eBioscience, Invitrogen) against mouse NOTCH1 (22E5). DN3 populations and IL-7R were stained using BioLegend antibodies (Australian Biosearch, Balcatta WA, Australia) against mouse CD28 (E18) and CD127 (A7R34), respectively. Apoptosis was measured using an antibody against AnnexinV (#556420, BD Australia) and the […] Sytox Blue (BD Australia) following the manufacturer’s protocol. […]
The period of administration is indicated in light grey.
g, Leukemia growth delay (LGD) in recipients injected with Lmo2Tg primary leukemias treated with
Median is indicated for each condition
(bar) with Mean ± SEM indicated for each primary T-ALL, 2-way ANOVA with Tukey’s correction

The next data set has as its system Ba/F3-IL7R cells. As to the kind of experiment: Survival of IL-7-dependent Ba/F3-IL7R cells. Type of data set: cell-based, murine. The note with it: for Survival (%) over DMSO control, reported as 100%: Ba/F3-IL7R cells, replicates. The method, then: Ba/F3 cells (kindly provided by a person from The Walter and Eliza Hall Institute of Medical Research) were infected with pMIG-R1/Il7r retroviral supernatants produced in 293T cells, and transduced cells were sorted with a BD Influx (BD Australia) and selected by culture in medium supplemented with 5 ng/mL rmIL-7 (#217-17, Pepro Tech, Rocky Hill NJ, USA) for 7 days. Ba/F3 cells stably expressing Il7r (Ba/F3-IL7R) were infected with TxTCPVIR-Stat5-CA retroviral supernatants produced in 293T. Cell sorting was performed with a BD Influx and transduced cells were treated with doxycycline for 48 h to induce the expression of the Stat5-CA-T2A-mCherry fusion protein.
Flow cytometry analyses were performed as previously described[10],[86] on single-cell suspensions stained using BD Pharmingen antibodies (BD Australia, North Ryde NSW, Australia) against mouse CD4 (RM4-5), CD8 (53-6.7), CD25 (PC61.5), CD44 (IM7), CD45.1 (A20), CD45.2 (104), Thy1.2 (53-2.1; #561616), TCRβ (H57-597), CD117 (ACK45), CD135 (A2F10.1), CD150 (TC15-12F12.2; #562373), B220 (RA3-6B2; #563708), CD3 (145-2C11; #563004), CD19 (ID3; #557655), Gr-1 (RB6-8C5; #563299 and #565033), CD11b (M1/70; #563015 and #560455), Ter119 (Ter119; #565523 and #557909), Sca-1 (D7; #558160) and an eBioscience antibody (eBioscience, Invitrogen) against mouse NOTCH1 (22E5). DN3 populations and IL-7R were stained using BioLegend antibodies (Australian Biosearch, Balcatta WA, Australia) against mouse CD28 (E18) and CD127 (A7R34), respectively. Apoptosis was measured using an antibody against AnnexinV (#556420, BD Australia) and the […] Sytox Blue (BD Australia) following the manufacturer’s protocol.

Data set [3] deals with normal murine hematopoietic stem and progenitor cells (HSPCs).
Procedure: Bone marrow cells collected from 2-month-old WT mice or CD34-positive (CD34+) stem and progenitor bone marrow cells from healthy donors were seeded at a density of 5 × 10^4 cells per 35 mm dish in semi-solid agar for GM colony growth, as previously described[92]. Cultures were incubated at 37 °C in 10% CO2 for 10 days in presence of 10 μg/mL rhIL-3 (#200-03, Pepro Tech), 25 μg/mL rhSCF (#300-07, Pepro Tech), 25 μg/mL rhFLT3-L (#300-19, Pepro Tech), rhIL-6 (#200-06, Pepro Tech), 500 nM StemRegenin 1 (SR1; #1227633-49-9, Stem Cell Technologies) and 35 nM UM-171 (#72914, Stem Cell Technologies)[93],[94], then stained with acetyl-cholinesterase and counted for the number of colonies.

Several values for one entry are separate records, joined by “and”; a condition that tells them apart may be missing. Identical values can stand only once.

Turning to `CCCCCCCCNC(=O)C(C#N)=Cc1cn(CCCN(C)C)c2ccccc12` [Dynole 34-2, 2-Cyano-N-octyl-3-(1-(3-dimethylaminopropyl)-1H-indol-3-yl)-acrylamide], the “survival of recipients, single agent” value in data set [1] (ETP12 and ALL8 xenografts, result in words) is listed as “significant survival advantage”. Also, the “Leukemia Growth Delay (LGD) Over Vehicle” value worked out at 2.62 days in data set [1] (PDX ALL8) and 7.34 days in data set [1] (PDX ETP12). Also, the Time to leukemia in data set [1] (PDX ETP12) was 4.63 weeks and 5.6 weeks and 4.86 weeks and 4.8 weeks and 5.54 weeks and 4.7 weeks and 4.81 weeks and 6.67 weeks. Further, the “Absolute numbers CD45.2+ DN3a cells” value is 14400000 and 25700000 and 20600000 in data set [2] (T-ALL 249, Spleen of recipients); 9200 and 6480 and 12500 in data set [2] (T-ALL 273, BM of recipients). For the same compound, the “Proportion of CD45.2+ (%) in peripheral blood” value (“Proportion of CD45.2+ (%)” for short) is 1.0% in data set [2] (T-ALL 249, time 1 weeks); 85.0% and 93.0% and 82.0% and 75.0% in data set [2] (T-ALL 249, time 3 weeks); 85.0% and 76.0% in data set [2] (T-ALL 249, time 3.7 weeks); 42.1% and 57.0% and 54.0% and 43.9% and 53.3% in data set [2] (T-ALL 249, time 4 weeks); 1.0% in data set [2] (T-ALL 273, time 1 weeks); 2.0% in data set [2] (T-ALL 273, time 5 weeks). Further, the “Proportion of CD45.2+ (%)” value in data set [2] (T-ALL 273, time 6 weeks) was 64.0%; in data set [2] (T-ALL 582, time 1 weeks), 4.9% and 3.3% and 7.9% and 0.1%; in data set [2] (T-ALL 582, time 2 weeks), 19.6%; in data set [2] (T-ALL 582, time 4 weeks), 5.1% and 6.0% and 2.7% and 1.8%; in data set [2] (T-ALL 582, time 4.1 weeks), 57.1%; in data set [2] (T-ALL 582, time 5 weeks) it was 40.6% and 45.8% and 42.7% and 38.8%. The “Proportion of CD45.2+ (%)” value was 90.7% in data set [2] (T-ALL 582, time 5.6 weeks); 97.8% in data set [2] (T-ALL 582, time 6 weeks); 96.2% in data set [2] (T-ALL 582, time 6.3 weeks). Moreover, the Spleen weight in data set [2] (recipients of primary T-ALL 273) was 0.186 g and 0.118 g and 0.165 g; in data set [2] (recipients of primary T-ALL 582), 0.123 g and 0.097 g and 0.095 g. Moreover, the “Survival (%) over DMSO control, reported as 100%” value in the data set with Ba/F3-IL7R cells (+IL-7, Dynole 34-2 0.2 (head prints mM)) is 98.98% and 96.19% and 98.31% and 99.95% and 64.95% and 22.36% and 89.89% and 75.78% and 97.73% and 100.16%; in the data set on Ba/F3-IL7R cells (+IL-7, Dynole 34-2 1.0 (head prints mM)), 96.00% and 88.79% and 100.24% and 102.05% and 16.85% and 13.04% and 78.86% and 82.29% and 101.66% and 91.15%; in the data set with Ba/F3-IL7R cells (+IL-7, Dynole 34-2 5.0 (head prints mM)), 81.60% and 25.70% and 92.65% and 90.92% and 25.47% and 16.90% and 48.81% and 60.17% and 57.90% and 33.60%; in the data set with Ba/F3-IL7R cells (+IL-7, Dynole 34-2 10.0 (head prints mM)), 1.62% and 1.82% and 0.05% and 0.27% and 26.62% and 22.03% and 44.15% and 40.27% and 4.53% and 9.16%; with Ba/F3-IL7R cells (+IL-7, Dynole 34-2 25.0 (head prints mM)) it was 1.30% and 1.60% and 0.00% (2×) and 24.81% and 18.62% and 3.40% and 4.14% and 4.55% and 3.04%. The “cell death of Ba/F3-IL7R cells” value with Ba/F3-IL7R cells (result in words) is recorded as “induced cell death in a dose-dependent manner”.

Regarding `N#CC[C@H](C1CCCC1)n1cc(-c2ncnc3[nH]ccc23)cn1` [Ruxolitinib], the “growth of normal hematopoietic stem and progenitor cells (HSPCs), clonogenic assay” value in data set [3] is “significantly impaired”.

(Values after article PMC7719179, “Small molecule inhibition of Dynamin-dependent endocytosis targets multiple niche signals and impairs leukemia stem cells” (Nature Communications, 2020).)
